Results taken from patent publication US10961198B2, “Farnesoid X receptor agonists and uses thereof” (Metacrine, Inc., priority 2017, dated 2021).

Molecular target: hFXR (Homo sapiens (Human), UniProt Q96RI1)
Experiment: In Vitro FXR Assay (TK)
Assay type: cell-based
Settings: CV-1 cells transfected with hFXR, hRXR, TK-ECRE-luc and pCMX-YFP; incubated 18 hrs; luminescence; maximum efficacy <25% of the Fexarmine control classified as '+'
Experimental: Example B-1: In Vitro FXR Assay (TK)
CV-1 cells were seeded at a density of 2,000,000 cells in a T175 flask with DMEM+10% charcoal double-stripped FBS and incubated at 37° C. in 5% CO2 for 18 h (O/N).
After 18 h of incubation, the medium in the T175 flask was changed with fresh DMEM+10% charcoal super-stripped serum. In a polypropylene tube, 2500 μL OptiMEM (Life Technologies, Cat #31985-062) was combined with expression plasmids for hFXR, hRXR, TK-ECRE-luc and pCMX-YFP. The tube was then briefly vortexed and incubated at room temperature for 5 minutes. Transfection reagent (X-tremeGENE HP from Roche, Cat #06 366 236 001) was added to the OptiMEM/plasmid mixture vortexed and incubated at room temperature for 20 minutes. Following incubation, the transfection reagent/DNA mixture complex was added to cells in the T175 flask and the cells were incubated at 37° C. in 5% CO2 for 18 h (O/N).
Compounds were serially diluted in DMSO and added to transfected CV-1 cells. The cells were then incubated for 18 hrs. The next day cells were lysed and examined for luminescence.

Chain of hFXR (Q96RI1 whole entry): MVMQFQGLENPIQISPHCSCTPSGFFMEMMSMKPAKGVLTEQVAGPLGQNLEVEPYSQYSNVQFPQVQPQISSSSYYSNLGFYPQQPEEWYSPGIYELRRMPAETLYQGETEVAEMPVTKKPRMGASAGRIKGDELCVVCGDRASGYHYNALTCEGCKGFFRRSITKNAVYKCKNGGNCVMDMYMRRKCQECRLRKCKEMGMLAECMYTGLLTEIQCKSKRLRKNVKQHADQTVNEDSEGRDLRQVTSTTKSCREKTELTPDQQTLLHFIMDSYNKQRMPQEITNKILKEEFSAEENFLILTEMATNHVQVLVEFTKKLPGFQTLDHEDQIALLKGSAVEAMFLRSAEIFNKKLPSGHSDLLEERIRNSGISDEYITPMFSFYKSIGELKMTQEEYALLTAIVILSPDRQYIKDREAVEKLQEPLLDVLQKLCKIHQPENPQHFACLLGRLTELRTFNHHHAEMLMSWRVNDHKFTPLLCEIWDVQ
Chain of hFXR (P19793 whole entry partner): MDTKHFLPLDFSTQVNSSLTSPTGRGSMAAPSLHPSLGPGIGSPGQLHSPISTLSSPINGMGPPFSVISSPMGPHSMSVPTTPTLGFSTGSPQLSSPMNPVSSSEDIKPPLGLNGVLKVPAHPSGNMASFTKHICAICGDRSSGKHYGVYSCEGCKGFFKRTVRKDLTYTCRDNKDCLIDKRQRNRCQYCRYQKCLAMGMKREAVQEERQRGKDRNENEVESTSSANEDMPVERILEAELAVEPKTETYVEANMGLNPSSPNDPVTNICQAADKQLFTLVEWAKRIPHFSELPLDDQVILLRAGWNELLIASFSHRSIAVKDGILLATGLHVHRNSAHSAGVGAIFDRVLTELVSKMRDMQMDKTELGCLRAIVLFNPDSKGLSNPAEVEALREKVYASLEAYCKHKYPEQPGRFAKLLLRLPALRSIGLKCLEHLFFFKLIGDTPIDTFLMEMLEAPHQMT

EC50 [nM] | Structure (SMILES)
≤ 250 | COc1ccc([C@H]2CC[C@H](CN(c3cc(-c4cnn(C5CC5)c4)ccn3)C(=O)[C@H]3CC[C@H](O)CC3)CC2)cc1C [Compound 2.07, trans-N-(4-(1-Cyclopropyl-1H-pyrazol-4-yl)pyridin-2-yl)-4-hydroxy-N-((trans-4-(4-methoxy-3-methylphenyl)cyclohexyl)methyl)cyclohexanecarboxamide]
≤ 250 | CCn1cc(-c2cccc(N(C[C@H]3CC[C@H](c4ccc(OC)c(C)c4)CC3)C(=O)[C@H]3CC[C@H](O)CC3)c2)cn1 [Compound 2.02, trans-N-(3-(1-Ethyl-1H-pyrazol-4-yl)phenyl)-4-hydroxy-N-((trans-4-(4-methoxy-3-methylphenyl)cyclohexyl)methyl)cyclohexanecarboxamide]
≥ 1000 | COc1ccc([C@H]2CC[C@H](CN(c3cccc(-c4ccn(C)n4)c3)C(=O)[C@H]3CC[C@H](O)CC3)CC2)cc1C [Compound 3.01, trans-4-Hydroxy-N-((trans-4-(4-methoxy-3-methylphenyl)cyclohexyl)methyl)-N-(3-(1-methyl-1H-pyrazol-3-yl)phenyl)cyclohexanecarboxamide]
≤ 250 | COc1ccc([C@H]2CC[C@H](CN(c3cccc(-c4cnn(C5CCC5)c4)c3)C(=O)[C@H]3CC[C@H](O)CC3)CC2)cc1C [Compound 3.08, trans-N-(3-(1-Cyclobutyl-1H-pyrazol-4-yl)phenyl)-4-hydroxy-N-((trans-4-(4-methoxy-3-methylphenyl)cyclohexyl)methyl)cyclohexanecarboxamide]
≤ 250 | COc1ccc([C@H]2CC[C@H](CN(c3cccc(-c4cnn(CC(F)(F)F)c4)c3)C(=O)[C@H]3CC[C@H](O)CC3)CC2)cc1C [Compound 3.07, trans-4-Hydroxy-N-((trans-4-(4-methoxy-3-methylphenyl)cyclohexyl)methyl)-N-(3-(1-(2,2,2-trifluoroethyl)-1H-pyrazol-4-yl)phenyl)cyclohexanecarboxamide]
≤ 250 | COc1ccc([C@H]2CC[C@H](CN(c3cccc(-c4cnn(C(C)C)c4)c3)C(=O)[C@H]3CC[C@@](C)(O)CC3)CC2)cc1C [Compound 5.28, (1s, 4s)-4-Hydroxy-N-(3-(1-isopropyl-1H-pyrazol-4-yl)phenyl)-N-((trans-4-(4-methoxy-3-methylphenyl)cyclohexyl)methyl)-4-methylcyclohexanecarboxamide]
≥ 1000 | COc1ccc([C@H]2CC[C@H](CN(c3cccc(-c4cnn(CCO)c4)c3)C(=O)[C@H]3CC[C@H](O)CC3)CC2)cc1C [Compound 3.05, trans-4-Hydroxy-N-(3-(1-(2-hydroxyethyl)-1H-pyrazol-4-yl)phenyl)-N-((trans-4-(4-methoxy-3-methylphenyl)cyclohexyl)methyl)cyclohexanecarboxamide]
≤ 250 | COc1ccc([C@H]2CC[C@H](CN(c3cccc(-c4cnn(C5COC5)c4)c3)C(=O)[C@H]3CC[C@H](O)CC3)CC2)cc1C [Compound 3.09, trans-4-Hydroxy-N-((trans-4-(4-methoxy-3-methylphenyl)cyclohexyl)methyl)-N-(3-(1-(oxetan-3-yl)-1H-pyrazol-4-yl)phenyl)cyclohexanecarboxamide]
≤ 250 | COc1ccc([C@H]2CC[C@H](CN(c3cccc(-c4cnn(C5CC5)c4)c3)C(=O)[C@H]3CC[C@H](O)CC3)CC2)nc1C#N [Compound 5.05, trans-N-((trans-4-(6-Cyano-5-methoxypyridin-2-yl)cyclohexyl)methyl)-N-(3-(1-cyclopropyl-1H-pyrazol-4-yl)phenyl)-4-hydroxycyclohexanecarboxamide]
≤ 250 | COc1ccc([C@H]2CC[C@H](CN(c3cc(-c4cnn(C(C)C)c4)ccn3)C(=O)[C@H]3CC[C@H](O)CC3)CC2)cc1C#N [Compound 5.14, trans-N-((trans-4-(3-Cyano-4-methoxyphenyl)cyclohexyl)methyl)-4-hydroxy-N-(4-(1-isopropyl-1H-pyrazol-4-yl)pyridin-2-yl)cyclohexanecarboxamide]
≤ 250 | COc1ccc([C@H]2CC[C@H](CN(c3cccc(-c4cnn(C(C)C)c4)c3)C(=O)[C@H]3CC[C@](C)(O)CC3)CC2)cc1C [Compound 5.27, (1r,4r)-4-Hydroxy-N-(3-(1-isopropyl-1H-pyrazol-4-yl)phenyl)-N-((trans-4-(4-methoxy-3-methylphenyl)cyclohexyl)methyl)-4-methylcyclohexanecarboxamide]
250 to 1000 | COc1ccc([C@H]2CC[C@H](CN(c3cccc(-n4ccc(C)n4)c3)C(=O)[C@H]3CC[C@H](O)CC3)CC2)cc1C [Compound 5.01, trans-4-Hydroxy-N-((trans-4-(4-methoxy-3-methylphenyl)cyclohexyl)methyl)-N-(3-(3-methyl-1H-pyrazol-1-yl)phenyl)cyclohexanecarboxamide]
≤ 250 | COc1ccc([C@H]2CC[C@H](CN(c3cc(-c4cnn(C5CC5)c4)ccn3)C(=O)[C@H]3CC[C@H](O)CC3)CC2)cc1C#N [Compound 5.13, trans-N-((trans-4-(3-Cyano-4-methoxyphenyl)cyclohexyl)methyl)-N-(4-(1-cyclopropyl-1H-pyrazol-4-yl)pyridin-2-yl)-4-hydroxycyclohexanecarboxamide]
≤ 250 | COc1ccc([C@H]2CC[C@H](CN(c3cccc(-c4cnn(CC(C)C)c4)c3)C(=O)[C@H]3CC[C@H](O)CC3)CC2)cc1C [Compound 3.03, trans-4-Hydroxy-N-(3-(1-isobutyl-1H-pyrazol-4-yl)phenyl)-N-((trans-4-(4-methoxy-3-methylphenyl)cyclohexyl)methyl)cyclohexanecarboxamide]
≤ 250 | COc1ncc([C@H]2CC[C@H](CN(c3cc(-c4cnn(C(C)C)c4)ccn3)C(=O)[C@H]3CC[C@H](O)CC3)CC2)cc1C [Compound 5.29, trans-4-Hydroxy-N-(4-(1-Isopropyl-1H-pyrazol-4-yl)pyridin-2-yl)-N-((trans-4-(6-methoxy-5-methylpyridin-3-yl)cyclohexyl)methyl)cyclohexanecarboxamide]
≤ 250 | COc1ccc(C2CCC(CN(c3cccc(-c4cnn(C5CC5)c4)c3)C(=O)[C@H]3CC[C@@H](O)CC3)CC2)cc1C (stereo partly drawn) [Compound 5.25, cis-N-(3-(1-Cyclopropyl-1H-pyrazol-4-yl)phenyl)-4-hydroxy-N-((4-(4-methoxy-3-methylphenyl)cyclohexyl)methyl)cyclohexanecarboxamide]
≤ 250 | COc1ccc([C@H]2CC[C@H](CN(c3cccc(-c4cnn(C(C)(C)C)c4)c3)C(=O)[C@H]3CC[C@H](O)CC3)CC2)cc1C [Compound 5.08, trans-N-(3-(1-(tert-Butyl)-1H-pyrazol-4-yl)phenyl)-4-hydroxy-N-((trans-4-(4-methoxy-3-methylphenyl)cyclohexyl)methyl)cyclohexanecarboxamide]
≤ 250 | COc1ccc([C@H]2CC[C@H](CN(c3cccc(-c4cnn(C5CC5)c4)c3)C(=O)[C@H]3CC[C@H](O)CC3)CC2)cc1C [Compound 3, trans-N-(3-(1-Cyclopropyl-1H-pyrazol-4-yl)phenyl)-4-hydroxy-N-((trans-4-(4-methoxy-3-methylphenyl)cyclohexyl)methyl)cyclohexanecarboxamide]
≤ 250 | COc1ccc([C@H]2CC[C@H](CN(c3cccc(-c4cnn(C(C)C)c4)c3)C(=O)[C@H]3CC[C@H](O)CC3)CC2)cc1C#N [Compound 2.03, trans-N-((trans-4-(3-Cyano-4-methoxyphenyl)cyclohexyl)methyl)-4-hydroxy-N-(3-(1-isopropyl-1H-pyrazol-4-yl)phenyl)cyclohexanecarboxamide]
250 to 1000 | COc1ccc(C23CCC(CN(c4cccc(-c5cnn(C6CC6)c5)c4)C(=O)[C@H]4CC[C@H](N)CC4)(CC2)CC3)cc1C [Compound 7.01, trans-4-Amino-N-(3-(1-cyclopropyl-1H-pyrazol-4-yl)phenyl)-N-((4-(4-methoxy-3-methylphenyl)bicyclo[2.2.2]octan-1-yl)methyl)cyclohexanecarboxamide]
≥ 1000 | Cn1ccc2cc([C@H]3CC[C@H](CN(c4cccc(-c5cnn(C6CC6)c5)c4)C(=O)[C@H]4CC[C@H](O)CC4)CC3)ncc21 [Compound 5.21, trans-N-(3-(1-Cyclopropyl-1H-pyrazol-4-yl)phenyl)-4-hydroxy-N-((trans-4-(1-methyl-1H-pyrrolo[2,3-c]pyridin-5-yl)cyclohexyl)methyl)cyclohexanecarboxamide]
≤ 250 | COc1ncc([C@H]2CC[C@H](CN(c3cc(-c4cnn(C(C)C)c4)ccn3)C(=O)[C@H]3CC[C@H](O)CC3)CC2)cc1Cl [Compound 5.30, trans-N-((trans-4-(5-Chloro-6-methoxypyridin-3-yl)cyclohexyl)methyl)-4-hydroxy-N-(4-(1-isopropyl-1H-pyrazol-4-yl)pyridin-2-yl)cyclohexanecarboxamide]
≤ 250 | Cn1nc(F)c2cc([C@H]3CC[C@H](CN(c4cccc(-c5cnn(C6CC6)c5)c4)C(=O)[C@H]4CC[C@H](O)CC4)CC3)ccc21 [Compound 5, trans-N-(3-(1-Cyclopropyl-1H-pyrazol-4-yl)phenyl)-N-((trans-4-(3-fluoro-1-methyl-1H-indazol-5-yl)cyclohexyl)methyl)-4-hydroxycyclohexanecarboxamide]
≤ 250 | COc1ccc([C@H]2CC[C@H](CN(c3cccc(-c4cnn(C5CCOCC5)c4)c3)C(=O)[C@H]3CC[C@H](O)CC3)CC2)cc1C [Compound 3.10, trans-4-Hydroxy-N-((trans-4-(4-methoxy-3-methylphenyl)cyclohexyl)methyl)-N-(3-(1-(tetrahydro-2H-pyran-4-yl)-1H-pyrazol-4-yl)phenyl)cyclohexanecarboxamide]
